Laboratory results reported in BindingDB's records for doi:10.1021/jm0502182 (Institute of Cancer Research, 2005).

Assay: Inhibitory activity against carboxypeptidase G2 from pseudomonas RS16

| SMILES | Ki [µM] |
| --- | --- |
| O=C(O)CC[C@H](NC(=O)c1c(F)c(F)c(N(CCCl)CCCl)c(F)c1F)C(=O)O [(S)-2-{4-[Bis-(2-chloro-ethyl)-amino]-2,3,5,6-tetrafluoro-benzoylamino}-pentanedioic acid] | 127 |
| O=C(O)CC[C@H](NC(=O)c1c(F)c(F)c(N(CCI)CCI)c(F)c1F)C(=O)O [(S)-2-{4-[Bis-(2-iodo-ethyl)-amino]-2,3,5,6-tetrafluoro-benzoylamino}-pentanedioic acid] | 276 |
